Laboratory results: patent publication US8492383B2 (Jewish General Hospital, priority 2002, dated 2013)
Values joined by “and” are separate entries in the source; they are usually repeats but may differ in a detail not shown here. Equal values may be shown once.

Experiments:
[1] = system: lymphocytes from CLL patients; test: MTT cytotoxic assay, lymphocytes from CLL patients; assay type: cell-based, human; details: drug alone
I83 cell line = details: drug alone, MTT 72 hours

## O=C(O)CCCc1ccc(N(CCCl)CCCl)cc1 [CLB, chlorambucil]
[1]; CLL patient T^1 (previously treated with CLB)
  LD50: 9.29 µM
[1]; CLL patient T^2 (previously treated with CLB)
  LD50: 23.1 µM
[1]; CLL patient T^3 (previously treated with CLB)
  LD50: 5.56 µM
[1]; CLL patient T^4 (previously treated with CLB)
  LD50: 79.7 µM
[1]; CLL patient T^5 (previously treated with CLB)
  LD50: 49.2 µM
[1]; CLL patient U^1 (untreated)
  LD50: 14.6 µM
[1]; CLL patient U^2 (untreated)
  LD50: 28.49 µM
[1]; CLL patient U^3 (untreated)
  LD50: 20.02 µM
[1]; CLL patient U^4 (untreated)
  LD50: 54.2 µM
[1]; CLL patient U^5 (untreated)
  LD50: 12.27 µM
[1]; CLL patient U^6 (untreated)
  LD50: 18.08 µM
[1]; CLL patient U^7 (untreated)
  LD50: 7.84 µM
I83 cell line
  LD50: 40.66 µM and 40.66 ± 2.80 µM
